The values that follow are results of earlier work, collected in US10736889B2, “Method of treating dyskinesia” (Rutgers, The State University of New Jersey, priority 2011, dated 2020).

Data set [1] concerns hemiparkinsonian marmoset monkeys. The conditions noted are these: lower doses.
The target of a further data set is δ-opioid receptors (Homo sapiens, UniProt P41143). Conditions: for Ki: read-out: Ki for δ-opioid receptors.
Another data set addresses κ-opioid receptors (Homo sapiens, UniProt P41145). The conditions noted are these: for IC50: read-out: IC50 for κ-opioid receptors; for Ki: read-out: Ki for κ-opioid receptors.
Another data set addresses μ-opioid receptors (Homo sapiens, UniProt P35372). Conditions: for Ki: read-out: Ki for μ-opioid receptors.
The test system of data set [2] is 6-hydroxydopamine-lesioned rat model.
The conditions of data set [3]: compared with Nalbuphine itself.
For data set [4], the system named is LID. The conditions noted are these: variable effects in monkeys and humans.
In data set [5] the test system is LID. The conditions noted are these: in vivo.
Data set [6] has as its system LID. Conditions: only drug available.

Where two headings read alike, the source gives them in different places.

Sequence of δ-opioid receptors (P41143 whole entry): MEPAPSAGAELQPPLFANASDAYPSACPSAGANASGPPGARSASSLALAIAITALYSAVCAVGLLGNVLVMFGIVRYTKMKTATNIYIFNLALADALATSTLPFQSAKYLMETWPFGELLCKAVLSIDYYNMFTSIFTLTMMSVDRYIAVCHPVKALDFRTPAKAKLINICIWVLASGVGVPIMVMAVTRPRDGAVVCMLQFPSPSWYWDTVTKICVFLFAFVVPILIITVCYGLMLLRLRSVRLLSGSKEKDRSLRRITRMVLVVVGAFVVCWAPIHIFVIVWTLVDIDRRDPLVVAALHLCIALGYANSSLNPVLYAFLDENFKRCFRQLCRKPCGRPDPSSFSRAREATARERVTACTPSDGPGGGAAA
Sequence of μ-opioid receptors (P35372 whole entry): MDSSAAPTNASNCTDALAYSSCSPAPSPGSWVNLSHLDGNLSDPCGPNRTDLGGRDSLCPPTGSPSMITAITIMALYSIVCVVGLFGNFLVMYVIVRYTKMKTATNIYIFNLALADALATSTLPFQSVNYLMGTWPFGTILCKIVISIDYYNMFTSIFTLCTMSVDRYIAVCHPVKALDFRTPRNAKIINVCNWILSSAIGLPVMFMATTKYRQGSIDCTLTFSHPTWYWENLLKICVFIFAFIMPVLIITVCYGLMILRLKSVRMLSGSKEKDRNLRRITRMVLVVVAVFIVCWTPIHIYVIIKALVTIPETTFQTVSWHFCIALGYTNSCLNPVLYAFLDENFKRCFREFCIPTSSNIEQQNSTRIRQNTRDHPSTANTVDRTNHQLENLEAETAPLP
Sequence of κ-opioid receptors (P41145 whole entry): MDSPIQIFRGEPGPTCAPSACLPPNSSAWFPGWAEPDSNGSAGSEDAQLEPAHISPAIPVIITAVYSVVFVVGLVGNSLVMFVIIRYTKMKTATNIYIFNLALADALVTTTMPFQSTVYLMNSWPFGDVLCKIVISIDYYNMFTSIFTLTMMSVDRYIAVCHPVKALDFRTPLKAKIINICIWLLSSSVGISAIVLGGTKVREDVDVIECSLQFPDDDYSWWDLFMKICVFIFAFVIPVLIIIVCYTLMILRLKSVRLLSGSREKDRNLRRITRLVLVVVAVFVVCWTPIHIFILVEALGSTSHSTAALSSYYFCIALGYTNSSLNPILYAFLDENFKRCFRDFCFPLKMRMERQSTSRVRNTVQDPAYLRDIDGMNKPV

For `Oc1ccc2c3c1O[C@H]1c4[nH]c5ccccc5c4C[C@@]4(O)[C@@H](C2)N(CC2CC2)CC[C@]314` [naltrindole], the levodopa-induced rotations entry in [1] is “reduce levodopa-induced rotations”. Take N-allyl-normorphine [Nalorphine]: the Ki on δ-opioid receptors is roughly 6.33 nM. For `CCC12CCN(CC3(O)CC3)C(Cc3ccc(O)cc31)C2(C)C` (stereo not shown) [Bremazocine], the Ki on δ-opioid receptors is less than 1000 nM. Moreover, the half-maximal inhibitory concentration (IC50) on κ-opioid receptors is roughly 0.16 nM.

Take `C=CCN1CCC2(C)c3cc(O)ccc3CC1C2C` (stereo not shown) [Alazocine]: the Ki at δ-opioid receptors is roughly 15 nM; at μ-opioid receptors, roughly 3 nM; on κ-opioid receptors it was roughly 4.7 nM. Turning to `CC(C)=CCN1CC[C@@]2(C)c3cc(O)ccc3C[C@@H]1C2C` (stereo in doubt) [Pentazocine], the Ki on κ-opioid receptors was roughly 2.2 nM. For the molecule `Oc1ccc2c3c1O[C@H]1c4[nH]c5c(c4C[C@@]4(O)[C@@H](C2)N(CC2CC2)CC[C@]314)C[C@@]1(O)[C@H]2Cc3ccc(O)c4c3[C@@]1(CCN2CC1CC1)[C@H]5O4` [nor-BNI], in [2], the levodopa-induced hyperkinesias result is recorded as “moderates”.

With `Oc1ccc2c(c1)[C@@]13CCCC[C@@]1(O)[C@@H](C2)N(CC1CCC1)CC3` [Butorphanol], the figures for the inhibitory constant (Ki) on δ-opioid receptors and on κ-opioid receptors were roughly 12 nM and roughly 0.12 nM, respectively. On to `O=C(CCCCCCCCC(=O)Oc1ccc2c3c1O[C@H]1[C@@H](O)CC[C@@]4(O)[C@@H](C2)N(CC2CCC2)CC[C@]314)Oc1ccc2c3c1O[C@H]1[C@@H](O)CC[C@@]4(O)[C@@H](C2)N(CC2CCC2)CC[C@]314` [sebacoyl di-Nalbuphine ester], for which the bioavailability result in data set [3] was “improved over that of Nalbuphine itself”. Regarding `O=C1CC[C@@]2(O)[C@H]3Cc4ccc(O)c5c4[C@@]2(CCN3CC2CC2)[C@H]1O5` [Naltrexone], the LID result in the data set with LID [4] is “no change, increases or decreases”. For `COc1cccc2c1[C@]13CCN(CC4CC4)[C@H](C2)[C@]1(OC)CCC(=O)C3` [cyprodime], the “peak-dose LID” value in the data set on LID [5] is recorded as “significantly reduces”. `Oc1ccc2c3c1O[C@H]1c4oc5ccccc5c4C[C@@]4(O)[C@@H](C2)N(CC2CC2)CC[C@]314` [Naltriben]: the Ki was roughly 19.8 nM at μ-opioid receptors and roughly 82.8 nM at κ-opioid receptors. For the molecule `C=CCN1CC[C@]23c4c5ccc(OC)c4O[C@H]2[C@@H](O)C=C[C@H]3[C@H]1C5` [Nalodeine], the Ki at δ-opioid receptors was less than 1000 nM. In the case of `C=CCN1CC[C@]23c4c5ccc(O)c4O[C@H]2C(=O)CC[C@@]3(O)[C@H]1C5` [Naloxone], in the data set with LID [4], the LID entry is reported as “no change, increases or decreases”.

For the molecule `CNCC[C@@H](Oc1ccccc1C)c1ccccc1` [Atomoxetine], the results for the IC50 at δ-opioid receptors (read-out: IC50 for δ-opioid receptors), on μ-opioid receptors and on κ-opioid receptors were less than 5000 nM, roughly 4190 nM and roughly 4380 nM, respectively. Take `Cl.NC12CC3CC(CC(C3)C1)C2` [amantadine, 1-adamantanamine hydrochloride]: in the data set with LID [6], the LID result is on record as “modestly reduce LID”. With `NC(=O)c1ccc2c(c1O)[C@]13CCN(CC4CC4)C(C2)[C@]1(O)CCC(=O)C3` [Samidorphan], the results for the inhibition constant (Ki) on δ-opioid receptors, on μ-opioid receptors and at κ-opioid receptors were roughly 2.6 nM, roughly 0.052 nM and roughly 0.23 nM, respectively.

In general, Ki refers to a dissociation constant, usually derived from enzyme kinetics or from competition with a known ligand. What is called IC50 is the concentration that gives 50% inhibition.
